Structures can show the parent of a compound that is named as a salt.
Tests used:
[1] = test system: rat fetal retinal nerve cells in culture; test: Death of rat fetal retinal nerve cells in culture induced by glutamate addition (trypan blue dye exclusion); assay type: cell-based; settings: 10 min, then 1 h drug-free, average
Description: (1) The action of the α1 receptor blocker on the death of rat fetal retinal nerve cells in culture as induced by glutamate addition
Retinal cells were taken out of a rat fetus (age of E18 days) and isolated, then cultured in an Eagle's basal culture medium containing 10% bovine fetus serum on a polyethylene imine-coated plastic cover slip for 7 days (37° C., 5% CO2/95% air). On the eighth day and thereafter, the cells were cultured in an Eagle's basal culture medium containing 10% horse serum. On the sixth day of the cultivation, cytosine arabinoside (10 μM) was added to suppress the growth of non-neuronal cells. On the eleventh day of the cultivation, the cells were cultured in a serum-free Eagle's basal culture medium supplemented with glutamate (1 mM) and an a, receptor blocker, for 10 minutes. Then, the cells were transferred to a serum-free Eagle's basic culture medium with no content of glutamate and an α1 receptor blocker, and cultured for one hour. Subsequently, toxicity was determined by the trypan blue dye exclusion method. Specifically, the cells were stained with 1.5% trypan blue solution for 10 minutes, fixed in 10% neutral formalin solution and rinsed with physiological saline. Subsequently, the cells were counted with a phase contrast microscope. The cells stained with trypan blue were defined as dead cells, while the cells never stained were defined as live cells. Based on the rate of the live cells to the total cells (200 or more), the survival rate of the culture cells was determined. A group with the addition of 1 mM glutamate alone and a group with the addition of both 1 mM glutamate and an α1 receptor blocker were defined as “1 mM glutamate single-addition group” and “group of 1 mM glutamate+α1 receptor blocker addition”, respectively. […] At this experiment, bunazosin hydrochloride, prazosin hydrochloride, terazosin hydrochloride and naftopidil hydrochloride were used as such α1 receptor blockers.

[2] = test system: rat fetal retinal nerve cells in culture; test: Death of rat fetal retinal nerve cells in culture induced by serum elimination (trypan blue dye exclusion; TUNEL method); assay type: cell-based; design: dose or concentration left out as unconfirmed; settings: serum elimination + test compound, 24 hours, average
Description: (2) The action of the a, receptor blocker on the death of rat fetal retinal nerve cells in culture as induced by serum elimination
Retinal cells were taken out of a rat fetus (age of E18 days) and isolated, then cultured in an Eagle's basal culture medium containing 10% bovine fetus serum on a polylysine-coated glass cover slip for 7 days (37° C., 5% CO2/95% air). On the eighth day and thereafter, the cells were cultured in an Eagle's basal culture medium containing 10% horse serum. On the sixth day of the cultivation, cytosine arabinoside (10 μM) was added to suppress the growth of non-neuronal cells. […] Subsequently, toxicity was determined by the trypan blue dye exclusion method. Specifically, the cells were stained with 1.5% trypan blue solution for 10 minutes, fixed in 10% neutral formalin solution and rinsed with physiological saline. Subsequently, the cells were counted with a phase contrast microscope. […] Based on the rate of the live cells to the total cells (200 or more), the survival rate of the culture cells was determined. Using the TUNEL method, additionally, the TUNEL-positive cells (apoptosis cells) increasing due to the serum elimination and the TUNEL-negative cells (live cells) were counted, to calculate the rate of the TUNEL-positive cells to the total cells. […]

[3] = 1 mM glutamate + 0.1 μM test compound
[4] = 1 mM glutamate + 10 μM test compound

SMILES | Survival rate (%) of retinal nerve cells in culture [1, 3] [%] | Survival rate (%) of retinal nerve cells in culture [1, 4] [%] | Rate (%) of TUNEL-positive cells ([2]; TUNEL method) [%] | Survival rate (%) of retinal nerve cells in culture [2] [%] | Survival rate (%) of retinal nerve cells in culture ([1]; 1 mM glutamate + 100 μM test compound) [%] | Survival rate (%) of retinal nerve cells in culture ([1]; 1 mM glutamate + 0.01 μM test compound) [%] | Survival rate (%) of retinal nerve cells in culture ([1]; 1 mM glutamate + 1 μM test compound) [%]
COc1ccccc1N1CCN(CC(O)COc2cccc3ccccc23)CC1 (stereo not shown) [naftopidil HCl, naftopidil hydrochloride] | 59.2 | 68.9 |  |  |  |  | 
CCCC(=O)N1CCCN(c2nc(N)c3cc(OC)c(OC)cc3n2)CC1 [bunazosin HCl, bunazosin hydrochloride] |  | 55.2 | 13 | 80 | 55.9 |  | 
COc1cc2nc(N3CCN(C(=O)C4CCCO4)CC3)nc(N)c2cc1OC (stereo not shown) [terazosin HCl, terazosin hydrochloride] | 70.7 |  |  |  |  | 69.8 | 
COc1cc2nc(N3CCN(C(=O)c4ccco4)CC3)nc(N)c2cc1OC [prazosin HCl, prazosin hydrochloride] |  | 67.1 |  |  |  |  | 65.2
